Test results published in ChEMBL document CHEMBL1201862, “PubChem BioAssay data set” (2004).
The source made the active and inactive calls.

Experiments:
[1] = mouse fibroblast viability loss – cell-based, cherry-pick samples, set 2, cytotoxicity control for T. cruzi growth inhibitor project, dose response (AID 651817); format: functional; details: NIH3T3
[2] = intracellular Trypanosoma cruzi inhibitors in host cells – cell-based, plate reader, cherry-pick samples, set 3, dose response (AID 651818); format: functional;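 note: compounds incubated with infected cells for about four days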
[3] = blockers of HIV-1 envelope-mediated cell-cell fusion – cherry-pick, dose response (AID 652057); format: functional, cell-based
[4] = viability loss in CEM21 cells – cell-based, CellTiter-Glo luminescence, cherry-picked, cytotoxicity control for viral fusion inhibitor project, dose response (AID 652042); format: functional;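 note: potency for signal decrease meaning cytotoxicity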
[5] = HIV-1 AD8 envelope cell-cell fusion blockers – cherry-pick, dose response (AID 652062); format: functional, cell-based;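 note: luciferase signal from cell-cell fusion driven by HIV-1 clade B AD8 Env; potency is for inhibitors of fusion seen as a drop in luminescence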
[6] = inhibition of ARNT PAS-B/TACC3 complex formation – biochemical, AlphaScreen, cherry-picked samples, confirmation (AID 651703); format: functional, Homo sapiens;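 note: His-tagged ARNT PAS-B domain paired with GST-TACC3 E629A dimer coactivator fragment; potency of inhibitors that break up the complex and lower AlphaScreen signal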
[7] = biological target: T1, Sentrin-specific protease 1 (Homo sapiens, UniProt Q9P0U3); test: SENP1 catalytic domain blockers, concentration series – biochemical, kinetic FRET, dose response (AID 651697); format: functional; details: read-out: IC50_Mean
T1 sequence (Q9P0U3 whole entry, the tested form may be a part): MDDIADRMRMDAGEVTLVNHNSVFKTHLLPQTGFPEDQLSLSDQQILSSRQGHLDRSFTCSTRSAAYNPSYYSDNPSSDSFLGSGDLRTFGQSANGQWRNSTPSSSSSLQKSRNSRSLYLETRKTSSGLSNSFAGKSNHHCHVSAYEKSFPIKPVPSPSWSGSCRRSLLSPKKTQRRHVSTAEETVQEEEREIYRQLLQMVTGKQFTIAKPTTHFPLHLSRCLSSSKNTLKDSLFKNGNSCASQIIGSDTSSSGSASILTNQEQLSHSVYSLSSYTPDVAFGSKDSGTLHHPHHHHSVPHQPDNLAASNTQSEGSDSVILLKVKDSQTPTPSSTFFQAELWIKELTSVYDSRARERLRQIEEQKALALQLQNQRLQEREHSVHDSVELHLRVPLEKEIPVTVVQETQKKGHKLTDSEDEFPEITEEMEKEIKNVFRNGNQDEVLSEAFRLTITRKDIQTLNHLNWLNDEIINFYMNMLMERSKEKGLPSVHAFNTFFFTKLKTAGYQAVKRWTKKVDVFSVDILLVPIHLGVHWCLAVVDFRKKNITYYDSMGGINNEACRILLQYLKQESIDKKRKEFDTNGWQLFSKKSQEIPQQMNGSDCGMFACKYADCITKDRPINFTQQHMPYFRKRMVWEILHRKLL

[8] = biological target: T1, Sentrin-specific protease 1; test: Dose response confirmation of small molecule inhibitors of the catalytic domain of the SUMO protease, SENP1 in a FRET assay.; format: functional; details: read-out: IC50_Mean
[9] = biological target: Metabotropic glutamate receptor 3 (Rattus norvegicus, UniProt P31422); test: inhibition of rat mGlu3 glutamate signaling – HEK/GIRK cells, thallium flux, dose response (AID 651839); format: functional
Chain of Metabotropic glutamate receptor 3 (P31422 whole entry): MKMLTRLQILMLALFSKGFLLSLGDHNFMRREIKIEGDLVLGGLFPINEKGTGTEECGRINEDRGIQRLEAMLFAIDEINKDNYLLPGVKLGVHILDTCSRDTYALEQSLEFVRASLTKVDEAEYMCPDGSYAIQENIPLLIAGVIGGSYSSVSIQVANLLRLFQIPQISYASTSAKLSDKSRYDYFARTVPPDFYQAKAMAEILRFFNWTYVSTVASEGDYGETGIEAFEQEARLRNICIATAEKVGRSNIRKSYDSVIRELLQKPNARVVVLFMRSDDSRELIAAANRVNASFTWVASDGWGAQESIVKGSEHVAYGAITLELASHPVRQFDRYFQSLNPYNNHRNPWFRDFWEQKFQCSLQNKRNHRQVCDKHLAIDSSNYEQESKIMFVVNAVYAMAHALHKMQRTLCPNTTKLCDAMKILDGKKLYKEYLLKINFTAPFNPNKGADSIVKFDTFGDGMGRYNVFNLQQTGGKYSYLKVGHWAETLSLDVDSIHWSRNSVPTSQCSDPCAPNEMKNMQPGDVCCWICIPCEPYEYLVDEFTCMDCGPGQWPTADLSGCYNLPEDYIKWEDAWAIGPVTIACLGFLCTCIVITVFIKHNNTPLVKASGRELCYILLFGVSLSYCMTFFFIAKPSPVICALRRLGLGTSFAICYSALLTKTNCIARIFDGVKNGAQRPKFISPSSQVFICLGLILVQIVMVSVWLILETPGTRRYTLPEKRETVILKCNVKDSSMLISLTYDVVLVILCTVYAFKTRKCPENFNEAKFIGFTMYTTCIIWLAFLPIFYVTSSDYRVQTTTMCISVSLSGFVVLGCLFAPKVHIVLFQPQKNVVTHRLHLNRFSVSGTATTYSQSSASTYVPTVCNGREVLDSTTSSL

[10] = biological target: Beta-lactamase (Salmonella choleraesuis (strain SC-B67), UniProt Q5J463); test: Epi-absorbance-based counterscreen for selective VIM-2 inhibitors: dose response biochemical high throughput screening assay to identify inhibitors of TEM-1 serine-beta-lactamase.
Chain of Beta-lactamase (Salmonella choleraesuis (strain SC-B67), UniProt Q5J463) (Q5J463 whole entry): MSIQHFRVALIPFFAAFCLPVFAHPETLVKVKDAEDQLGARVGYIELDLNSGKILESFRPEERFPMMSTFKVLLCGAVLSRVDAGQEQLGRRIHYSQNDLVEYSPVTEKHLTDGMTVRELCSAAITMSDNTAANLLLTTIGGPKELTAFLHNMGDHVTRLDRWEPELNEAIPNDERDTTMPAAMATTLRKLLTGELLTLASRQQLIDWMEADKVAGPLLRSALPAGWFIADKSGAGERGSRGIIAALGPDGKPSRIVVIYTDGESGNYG

[11] = biological target: T2, Beta-lactamase (Pseudomonas aeruginosa, UniProt Q79MP6); test: inhibition of IMP-1 beta-lactamase activity – biochemical, epi-absorbance, selectivity assay for VIM-2 inhibitor project, dose response (AID 1920)
T2 sequence (Q79MP6 whole entry): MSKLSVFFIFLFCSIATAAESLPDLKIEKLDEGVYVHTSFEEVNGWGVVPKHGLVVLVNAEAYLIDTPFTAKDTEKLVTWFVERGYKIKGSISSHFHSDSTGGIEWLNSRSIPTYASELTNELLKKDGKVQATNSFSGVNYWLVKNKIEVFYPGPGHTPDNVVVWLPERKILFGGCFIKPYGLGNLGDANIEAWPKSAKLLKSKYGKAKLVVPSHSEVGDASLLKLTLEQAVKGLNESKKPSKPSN

[12] = biological target: T2, Beta-lactamase; test: […] counterscreen for selective VIM-2 inhibitors: dose response biochemical high throughput screening assay to identify inhibitors of IMP-1 metallo-beta-lactamase.
[13] = biological target: T3, Coagulation factor XII (Homo sapiens, UniProt P00748); format: functional;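 note: activated factor XIIa alpha cleaving a fluorogenic AMC peptide substrate; inhibitor potency from loss of enzyme activity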
T3 sequence (P00748 whole entry): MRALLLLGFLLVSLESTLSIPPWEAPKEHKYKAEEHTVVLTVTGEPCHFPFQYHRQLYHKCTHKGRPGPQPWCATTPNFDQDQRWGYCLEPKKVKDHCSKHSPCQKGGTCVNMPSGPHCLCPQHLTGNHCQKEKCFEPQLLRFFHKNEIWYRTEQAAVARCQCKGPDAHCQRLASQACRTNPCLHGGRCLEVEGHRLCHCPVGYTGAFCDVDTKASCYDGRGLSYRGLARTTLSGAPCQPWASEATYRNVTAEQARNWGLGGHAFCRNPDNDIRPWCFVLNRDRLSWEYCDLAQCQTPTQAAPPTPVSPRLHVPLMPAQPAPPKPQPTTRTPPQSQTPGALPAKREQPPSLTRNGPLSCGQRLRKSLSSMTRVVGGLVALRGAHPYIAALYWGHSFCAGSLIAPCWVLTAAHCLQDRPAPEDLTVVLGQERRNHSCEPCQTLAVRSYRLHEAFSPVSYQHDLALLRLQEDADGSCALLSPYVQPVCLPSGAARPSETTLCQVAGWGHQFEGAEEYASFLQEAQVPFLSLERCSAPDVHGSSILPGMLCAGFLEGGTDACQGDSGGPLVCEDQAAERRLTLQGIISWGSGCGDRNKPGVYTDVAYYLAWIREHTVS

[14] = Luminescence Cell-Based Dose Response HTS to Identify Activators of Luciferase Translation or Activity in H4 […] Cells. [Related pubchem assays: 1829 (Project Summary), 1814 (Primary HTS)]; format: functional
[15] = test system: H4; test: Luminescence Cell-Based Dose Response HTS to Identify Activators of 5'UTR Stem-Loop Driven Prion Protein mRNA Translation in H4 Neuroglioblastoma Cells. [Related pubchem assays: 1829 (Project Summary), 1814 (Primary HTS)]; format: functional; details: Homo sapiens
[16] = biological target: T4, Aryl hydrocarbon receptor (Homo sapiens, UniProt P35869); test: Luminescence-based cell-based high throughput dose response assay for activators of the Aryl Hydrocarbon Receptor (AHR). [Related pubchem assays: 2796 (Primary screen (AHR activators in singlicate)), 2845 (Confirmation screen (AHR activators in triplicate)), 434939 (Counterscreen (PXR activators in triplicate)), 2804 (Summary (AHR activators))]; format: ADME
T4 sequence (P35869 whole entry): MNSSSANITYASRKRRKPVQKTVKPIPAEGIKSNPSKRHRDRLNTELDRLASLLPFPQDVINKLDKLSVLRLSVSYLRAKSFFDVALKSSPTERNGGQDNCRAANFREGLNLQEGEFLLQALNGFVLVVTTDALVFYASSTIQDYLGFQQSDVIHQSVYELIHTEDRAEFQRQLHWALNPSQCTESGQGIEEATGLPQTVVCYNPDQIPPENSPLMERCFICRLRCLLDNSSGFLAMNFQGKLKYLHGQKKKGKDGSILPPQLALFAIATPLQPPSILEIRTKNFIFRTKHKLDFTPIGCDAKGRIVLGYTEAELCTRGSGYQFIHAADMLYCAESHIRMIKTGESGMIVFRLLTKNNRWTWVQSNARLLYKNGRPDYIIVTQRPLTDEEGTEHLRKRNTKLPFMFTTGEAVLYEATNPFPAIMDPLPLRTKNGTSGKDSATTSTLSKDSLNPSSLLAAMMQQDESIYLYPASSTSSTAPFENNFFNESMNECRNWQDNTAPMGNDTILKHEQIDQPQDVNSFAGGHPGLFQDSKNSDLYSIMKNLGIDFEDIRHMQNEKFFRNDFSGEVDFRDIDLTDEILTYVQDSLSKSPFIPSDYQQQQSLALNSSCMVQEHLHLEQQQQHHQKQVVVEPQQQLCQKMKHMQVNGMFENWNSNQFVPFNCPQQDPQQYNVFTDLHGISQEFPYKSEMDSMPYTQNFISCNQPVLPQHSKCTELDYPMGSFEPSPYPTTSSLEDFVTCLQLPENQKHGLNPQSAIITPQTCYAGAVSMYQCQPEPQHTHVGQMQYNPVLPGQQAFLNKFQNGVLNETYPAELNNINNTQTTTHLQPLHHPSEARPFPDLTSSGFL

[17] = Counterscreen for […] of the human trace amine associated receptor 1 (TAAR1): Fluorescence-based cell-based high throughput dose response assay to identify nonselective Ga16 agonists.; format: functional
[18] = biological target: T5, Trace amine-associated receptor 1 (Homo sapiens, UniProt Q96RJ0); test: Fluorescence-based cell-based high throughput dose response assay to identify antagonists of the human trace amine associated receptor 1 (TAAR1).; format: functional
T5 sequence (Q96RJ0 whole entry): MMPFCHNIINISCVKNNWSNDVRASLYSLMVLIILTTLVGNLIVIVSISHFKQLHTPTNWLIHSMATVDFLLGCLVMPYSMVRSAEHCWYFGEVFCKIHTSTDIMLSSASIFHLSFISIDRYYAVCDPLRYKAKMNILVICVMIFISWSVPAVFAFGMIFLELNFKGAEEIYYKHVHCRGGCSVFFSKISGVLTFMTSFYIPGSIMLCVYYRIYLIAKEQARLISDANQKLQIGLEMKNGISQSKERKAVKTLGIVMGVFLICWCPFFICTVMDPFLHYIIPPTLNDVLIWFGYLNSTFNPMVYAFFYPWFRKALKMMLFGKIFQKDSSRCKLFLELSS

[19] = Counterscreen for antagonists of the human trace amine associated receptor 1 (hTAAR1): Fluorescence-based cell-based high throughput dose response assay to identify nonselective Ga16 antagonists.; format: functional
[20] = biological target: T5, Trace amine-associated receptor 1; test: Counterscreen for antagonists of the human trace amine associated receptor 1 (hTAAR1): Fluorescence-based cell-based high throughput dose response assay to identify TAAR1 Agonists.; format: functional
[21] = kidney cell line viability loss – HEK293T, luminescence plate reader, powder samples, set 4, cytotoxicity control, dose response (AID 651863); format: functional, cell-based; details: HEK293
[22] = biological target: ADP-ribosylation factor GTPase-activating protein 1 (Rattus norvegicus, UniProt Q62848); test: Fluorescence polarization-based biochemical high throughput dose response screening assay to identify inhibitors of ADP-ribosylation factor GTPase activating protein 1 (ARFGAP1).; format: functional
Chain of ADP-ribosylation factor GTPase-activating protein 1 (Q62848 whole entry, the tested form may be a part): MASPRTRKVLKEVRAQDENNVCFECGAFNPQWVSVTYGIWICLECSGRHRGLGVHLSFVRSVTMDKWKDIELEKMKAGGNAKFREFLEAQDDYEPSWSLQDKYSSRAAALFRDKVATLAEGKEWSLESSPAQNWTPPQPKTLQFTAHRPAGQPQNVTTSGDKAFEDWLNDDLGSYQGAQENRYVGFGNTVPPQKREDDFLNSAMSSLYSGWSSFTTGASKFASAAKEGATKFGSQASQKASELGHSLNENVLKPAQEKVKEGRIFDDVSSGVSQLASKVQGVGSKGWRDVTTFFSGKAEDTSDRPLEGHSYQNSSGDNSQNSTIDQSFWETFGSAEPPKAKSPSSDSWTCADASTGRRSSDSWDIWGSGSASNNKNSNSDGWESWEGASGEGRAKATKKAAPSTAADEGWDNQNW

[23] = biological target: Arf-GAP with SH3 domain, ANK repeat and PH domain-containing protein 1 (Homo sapiens, UniProt Q9ULH1); format: functional;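 note: biochemical fluorescence polarization dose–response screen measuring inhibition of ASAP1; ASAP1 GAP domain stimulating GTP hydrolysis by truncated human ARF1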
Chain of Arf-GAP with SH3 domain, ANK repeat and PH domain-containing protein 1 (Q9ULH1 whole entry, the tested form may be a part): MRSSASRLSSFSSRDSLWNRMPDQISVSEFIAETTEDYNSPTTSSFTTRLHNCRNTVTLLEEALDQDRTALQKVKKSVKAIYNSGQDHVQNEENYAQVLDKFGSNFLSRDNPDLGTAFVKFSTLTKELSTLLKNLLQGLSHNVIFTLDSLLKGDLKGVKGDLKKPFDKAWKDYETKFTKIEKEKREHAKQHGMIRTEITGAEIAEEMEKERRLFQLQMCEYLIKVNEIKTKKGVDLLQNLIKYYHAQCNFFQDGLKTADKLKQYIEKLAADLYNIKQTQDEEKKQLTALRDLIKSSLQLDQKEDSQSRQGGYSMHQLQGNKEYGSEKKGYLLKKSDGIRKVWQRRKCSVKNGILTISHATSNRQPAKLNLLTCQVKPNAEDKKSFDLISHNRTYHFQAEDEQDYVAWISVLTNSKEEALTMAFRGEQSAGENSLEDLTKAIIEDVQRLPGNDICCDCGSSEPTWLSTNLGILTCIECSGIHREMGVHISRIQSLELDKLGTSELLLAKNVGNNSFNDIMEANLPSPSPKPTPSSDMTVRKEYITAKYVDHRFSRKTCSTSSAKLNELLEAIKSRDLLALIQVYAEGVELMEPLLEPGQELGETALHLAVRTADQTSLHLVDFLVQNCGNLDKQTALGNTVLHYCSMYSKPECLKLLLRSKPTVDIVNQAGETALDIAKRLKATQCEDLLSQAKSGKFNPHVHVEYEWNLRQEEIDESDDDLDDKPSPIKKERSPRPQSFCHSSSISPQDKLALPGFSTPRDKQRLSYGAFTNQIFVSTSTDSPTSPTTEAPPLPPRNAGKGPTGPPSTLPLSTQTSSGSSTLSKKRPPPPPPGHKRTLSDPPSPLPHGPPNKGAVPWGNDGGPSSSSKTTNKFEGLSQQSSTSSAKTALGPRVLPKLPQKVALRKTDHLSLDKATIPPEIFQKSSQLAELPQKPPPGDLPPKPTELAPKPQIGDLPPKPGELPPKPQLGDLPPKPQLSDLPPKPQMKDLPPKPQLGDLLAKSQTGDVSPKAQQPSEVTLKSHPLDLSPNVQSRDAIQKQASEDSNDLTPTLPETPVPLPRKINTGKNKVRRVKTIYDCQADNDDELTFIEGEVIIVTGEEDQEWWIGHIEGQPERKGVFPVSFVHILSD

[24] = Luminescence Cell-Based Dose Retest to Confirm Inhibitors of Cancer Stem Cells. [Related pubchem assays (depositor defined):AID2717, AID2721]; format: functional; details: Homo sapiens
[25] = viability loss in HEK293T cells – cell-based, cherry-picks, cytotoxicity control for HIV Vif inhibitor project, dose response (AID 652208); format: functional

SMILES: C[C@@H]1CN([C@H](C)CO)C(=O)c2cccc(NC(=O)c3ccncc3)c2O[C@H]1CN(C)Cc1ccc(Cl)c(Cl)c1
- AC50 [1]: 27.6 µM (active)
- AC50 [2]: 0.08 µM (active)
- AC50 [3]: 7.3 µM (active)
- AC50 [4]: 38.5 µM (active)
- AC50 [5]: 29.8 µM (active)

SMILES: COC(=O)C(CC#Cc1ccc2c(c1)[C@]1(C(=O)N2)[C@H](c2ccc(O)cc2)N2[C@H](c3ccccc3)[C@H](c3ccccc3)OC(=O)[C@H]2[C@@H]1C(=O)N1CCCCCCC1)C(=O)OC
- AC50 [6]: 104 µM (active)

SMILES: Nc1ccc2c(c1)C(=NO)c1cc([N+](=O)[O-])ccc1-2
- IC50 [7]: 18.1 µM (active)
- IC50 [8]: 3.12 µM (active)

SMILES: COc1ccc(C#Cc2ccc(C(=O)N3CCC[C@@H](O)C3)cc2)c(F)c1
- IC50 [9]: 4.29 µM

SMILES: CSc1nc(SCC(=O)O)c2c3c(sc2n1)COC(C)(C)C3
- IC50 [10]: > 59.6 µM (inactive)
- IC50 [11]: > 59.6 µM (inactive)
- IC50 [12]: > 59.6 µM (inactive)
- IC50 [13]: > 50 µM (inactive)

SMILES: O=C(Nc1ccccc1OC(=O)c1ccc(Cl)cc1)c1ccc(Cl)cc1
- EC50 [14]: > 120 µM (not active)
- EC50 [15]: 13.7 µM (active)
- EC50 [16]: 4.89 µM (active)
- EC50 [17]: > 29.9 µM (inactive)
- IC50 [18]: 7.96 µM (active)
- IC50 [19]: > 9.97 µM (active)
- EC50 [20]: 15.7 µM (inactive)

SMILES: O=C(O)C1CCCCC1C(=O)N1CCc2ccccc2[C@H]1C(=O)NC12CC3CC(CC(C3)C1)C2 (stereo not given in full)
- AC50 [21]: > 52 µM (inactive)

SMILES: COc1ccc(/C=N\NC(=O)c2ccc([N+](=O)[O-])cc2)cc1COc1c(F)c(F)cc(F)c1F
- IC50 [22]: 12.4 µM (inactive)
- IC50 [23]: 15.7 µM (inactive)

SMILES: Cc1cc(C)cc(NC(=O)CCc2nc(O)c3c4c(sc3n2)CCCC4)c1
- AC50 [24]: 0.91 µM (active)
- AC50 [25]: 37.5 µM (active)
